The values that follow come from ChEMBL document CHEMBL1130170, “Orally active trifluoromethyl ketone inhibitors of human leukocyte elastase” (J Med Chem, 1997).

Where a SMILES comes first, the peptide text is derived from it. [ ]: non-standard residue; d: D form. The star is where a group is joined. ξ: configuration not given here. Cbz = O=C(OCc1ccccc1)*; ξV = CC(C)C(N)C(=O)O; CF3 = FC(F)(F)*; Moc = COC(=O)*

The Ki is a dissociation constant, usually derived from enzyme kinetics or from competition with a known ligand. As usually defined, the inhibition in vivo is the change of the read-out against control, counted positive when it falls. In general, ED50 refers to the dose that gives a 50% effect, or the effect in half of the subjects. Read a high ED50 as a need for a large dose.

One test deals with T1, Neutrophil elastase (Homo sapiens, UniProt P08246).
T1 sequence (P08246 whole entry): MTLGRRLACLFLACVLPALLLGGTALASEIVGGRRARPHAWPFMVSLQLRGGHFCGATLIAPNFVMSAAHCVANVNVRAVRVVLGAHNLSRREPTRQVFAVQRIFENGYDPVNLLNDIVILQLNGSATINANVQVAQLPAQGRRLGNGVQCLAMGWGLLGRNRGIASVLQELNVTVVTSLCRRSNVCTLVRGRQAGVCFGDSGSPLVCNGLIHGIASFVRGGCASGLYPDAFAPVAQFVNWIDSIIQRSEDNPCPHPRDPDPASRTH
The test can be described thus: Binding affinity for human leukocyte elastase.

In test [1] the test system is Cricetinae gen. sp. As to the kind of experiment: Percent inhibition of elastase-induced lung damage by 10 mg/kg dosed orally, 30 minutes prior to the instillation of 50 ug of elastase. The test is classed as functional, Cricetulus griseus. As to conditions: Cricetinae gen. sp., po.
The test system of test [2] is Cricetinae gen. sp. The test can be described thus: Effective dose in the Acute Hemarrhagic Assay model after oral administration. The test is classed as functional, Cricetulus griseus.

The compound `CCCNC(=O)C(F)(F)C(=O)[C@@H](NC(=O)[C@@H]1CCCN1C(=O)[C@@H](NC(=O)c1ccc(OC)cc1)C(C)C)C(C)C` returned a Ki on Neutrophil elastase of 8.9 nM. For the same compound, testing at 10 mg/kg in the test on Cricetinae gen. sp. [1] gave an inhibition in vivo of 17%.

Compound `COc1ccc(C(=O)N[C@H](C(=O)N2CCC[C@H]2C(=O)N[C@H](C(=O)C(F)(F)CN)C(C)C)C(C)C)cc1` came in with an inhibition in vivo at 10 mg/kg in the test on Cricetinae gen. sp. [1] of 10%.

As for `CC(C)[C@H](NC(=O)Oc1ccccc1)C(=O)N1CCC[C@H]1C(=O)N[C@H](C(=O)C(F)(F)CNC(=O)c1cccnc1)C(C)C`, the Ki at Neutrophil elastase was 0.35 nM. At 10 mg/kg the inhibition in vivo in the test with Cricetinae gen. sp. [1] was 46%.

On Neutrophil elastase, `COC(=O)c1ccc2oc(C(=O)[C@@H](NC(=O)[C@@H]3CCCN3C(=O)[C@@H](NC(=O)c3ccc(OC)cc3)C(C)C)C(C)C)nc2c1` displayed an inhibition constant Ki of 0.65 nM. In addition, in the test with Cricetinae gen. sp. [1], 10 mg/kg produced 0% inhibition in vivo.

Regarding `CCCCOC(=O)NCC(F)(F)C(=O)[C@@H](NC(=O)[C@@H]1CCCN1C(=O)[C@@H](NC(=O)Oc1ccccc1)C(C)C)C(C)C`, at Neutrophil elastase, the Ki is 0.35 nM. In the test with Cricetinae gen. sp. [1], this compound had an inhibition in vivo at 10 mg/kg of 0%.

`CC(C)[C@H](NC(=O)Oc1ccccc1)C(=O)N1CCC[C@H]1C(=O)N[C@H](C(=O)C(F)(F)CNCc1ccccc1)C(C)C`: the inhibition in vivo at 10 mg/kg in the test on Cricetinae gen. sp. [1] was 18%.

The compound `COC(=O)c1ccc2oc(C(=O)[C@@H](NC(=O)[C@@H]3CCCN3C(=O)[C@@H](NC(=O)Oc3ccccc3)C(C)C)C(C)C)nc2c1` had an inhibitory constant (Ki) at Neutrophil elastase of 0.64 nM. This compound also returned an inhibition in vivo at 10 mg/kg in the test on Cricetinae gen. sp. [1] of 12%.

Take `CC(C)[C@H](NC(=O)[C@@H]1CCCN1C(=O)[C@@H](NC(=O)OCc1ccccc1)C(C)C)C(=O)c1nc2ccccc2o1`: at Neutrophil elastase, the Ki turned out to be 4.7 nM. In the test on Cricetinae gen. sp. [1], 10 mg/kg produced 0% inhibition in vivo.

As to `COc1ccc(C(=O)N[C@H](C(=O)N2CCC[C@H]2C(=O)N[C@H](C(=O)C(F)(F)C(=O)NCc2ccccn2)C(C)C)C(C)C)cc1`, the affinity at Neutrophil elastase corresponds to a Ki of 3.1 nM. In the test on Cricetinae gen. sp. [1], this compound displayed an inhibition in vivo at 10 mg/kg of 43%.

On to `COc1ccc(C(=O)N[C@H](C(=O)N2CCC[C@H]2C(=O)N[C@H](C(=O)C(F)(F)CNC(=O)c2ccccc2)C(C)C)C(C)C)cc1`, for which, on Neutrophil elastase, affinity was put at a Ki of 6.4 nM. Besides, in the test with Cricetinae gen. sp. [1], at 10 mg/kg the inhibition in vivo was 18%.

Compound `CC(C)[C@H](NC(=O)Oc1ccccc1)C(=O)N1CCC[C@H]1C(=O)N[C@H](C(=O)C(F)(F)CN)C(C)C` yielded an inhibition in vivo at 10 mg/kg in the test on Cricetinae gen. sp. [1] of 45%.

With `CC(=O)NCC(F)(F)C(=O)[C@@H](NC(=O)[C@@H]1CCCN1C(=O)[C@@H](NC(=O)Oc1ccccc1)C(C)C)C(C)C`, the inhibition constant (Ki) at Neutrophil elastase was 2.3 nM. In the test with Cricetinae gen. sp. [1], this compound registered an inhibition in vivo at 10 mg/kg of 42%.

`CC(C)OC(=O)N[C@H](C(=O)N1CCC[C@H]1C(=O)NC(C(=O)C(F)(F)F)C(C)C)C(C)C` (stereo partly specified) showed a Ki on Neutrophil elastase of 33 nM. This compound also registered an inhibition in vivo at 10 mg/kg in the test on Cricetinae gen. sp. [1] of 69%.

The compound `CC(C)[C@H](NC(=O)Oc1ccccc1)C(=O)N1CCC[C@H]1C(=O)N[C@H](C(=O)C(F)(F)C(=O)NCc1ccccn1)C(C)C` gave a Ki at Neutrophil elastase of 1.7 nM. Besides, the inhibition in vivo at 10 mg/kg in the test with Cricetinae gen. sp. [1] was determined as 69%.

As to `CCCCOC(=O)NCC(F)(F)C(=O)[C@@H](NC(=O)[C@@H]1CCCN1C(=O)[C@@H](NC(=O)c1ccc(OC)cc1)C(C)C)C(C)C`, the Ki at Neutrophil elastase came out at 3.4 nM. Further, the inhibition in vivo at 10 mg/kg in the test on Cricetinae gen. sp. [1] turned out to be 24%.

Take `COc1ccc(C(=O)N[C@H](C(=O)N2CCC[C@H]2C(=O)N[C@H](C(=O)C(F)(F)CNCc2ccccc2)C(C)C)C(C)C)cc1`: in the test with Cricetinae gen. sp. [1], testing at 10 mg/kg gave an inhibition in vivo of 17%.

On to `CCCCOC(=O)NCC(F)(F)C(=O)[C@@H](NC(=O)[C@@H]1CCCN1C(=O)[C@@H](NC(=O)OCc1ccccc1)C(C)C)C(C)C`, for which the Ki at Neutrophil elastase stood at 1.1 nM. Moreover, 10 mg/kg produced 0% inhibition in vivo with Cricetinae gen. sp. [1].

Turning to `COC(=O)c1ccc2oc(C(=O)[C@@H](NC(=O)[C@@H]3CCCN3C(=O)[C@@H](NC(=O)OCc3ccccc3)C(C)C)C(C)C)nc2c1`, the inhibitory constant (Ki) at Neutrophil elastase is 0.58 nM. The compound further gave an inhibition in vivo at 10 mg/kg in the test on Cricetinae gen. sp. [1] of 34%.

`CC(C)[C@H](NC(=O)OC1CCCC1)C(=O)N1CCC[C@H]1C(=O)N[C@H](C(=O)C(F)(F)F)C(C)C` had an inhibition constant (Ki) at Neutrophil elastase of 1.9 nM. Further, the inhibition in vivo at 10 mg/kg in the test on Cricetinae gen. sp. [1] is 43%.

`CCOC(=O)N[C@H](C(=O)N1CCC[C@H]1C(=O)N[C@H](C(=O)C(F)(F)F)C(C)C)C(C)C`: the Ki on Neutrophil elastase amounted to 43 nM. The inhibition in vivo at 10 mg/kg with Cricetinae gen. sp. [1] turned out to be 74%.

`CC(C)[C@H](NC(=O)COc1ccccc1)C(=O)N1CCC[C@H]1C(=O)N[C@H](C(=O)C(F)(F)F)C(C)C` yielded a Ki on Neutrophil elastase of 17 nM. The inhibition in vivo at 10 mg/kg in the test on Cricetinae gen. sp. [1] was determined as 8%.

`CC(C)COC(=O)N[C@H](C(=O)N1CCC[C@H]1C(=O)N[C@H](C(=O)C(F)(F)F)C(C)C)C(C)C` gave a Ki at Neutrophil elastase of 20 nM. In the test with Cricetinae gen. sp. [1], this compound had an inhibition in vivo at 10 mg/kg of 3%.

Consider `COc1ccc(C(=O)N[C@H](C(=O)N2CCC[C@H]2C(=O)N[C@H](C(=O)c2nc3cc(NC(C)=O)ccc3o2)C(C)C)C(C)C)cc1`, for which the inhibitory constant (Ki) at Neutrophil elastase was found to be 8 nM. The inhibition in vivo at 10 mg/kg in the test on Cricetinae gen. sp. [1] came out at 11%.

Take `CC(C)[C@H](NC(=O)OCc1ccccc1)C(=O)N1CCC[C@H]1C(=O)N[C@H](C(=O)C(F)(F)C(N)=O)C(C)C`: the inhibition in vivo at 10 mg/kg in the test on Cricetinae gen. sp. [1] was determined as 17%.

For the compound `CNC(=O)C(F)(F)C(=O)[C@@H](NC(=O)[C@@H]1CCCN1C(=O)[C@@H](NC(=O)Oc1ccccc1)C(C)C)C(C)C`, at 10 mg/kg the inhibition in vivo in the test on Cricetinae gen. sp. [1] was 80%.

The compound `CNC(=O)C(F)(F)C(=O)[C@@H](NC(=O)[C@@H]1CCCN1C(=O)[C@@H](NC(=O)c1ccc(OC)cc1)C(C)C)C(C)C` registered a Ki on Neutrophil elastase of 3.8 nM. In addition, the inhibition in vivo at 10 mg/kg in the test on Cricetinae gen. sp. [1] was determined as 25%.

`CNC(=O)C(F)(F)C(=O)[C@@H](NC(=O)[C@@H]1CCCN1C(=O)[C@@H](NC(=O)OCc1ccccc1)C(C)C)C(C)C` returned an inhibition in vivo at 10 mg/kg with Cricetinae gen. sp. [1] of 7%.

`CC(C)[C@H](NC(=O)c1ccc(C(=O)NS(=O)(=O)c2ccccc2)cc1)C(=O)N1CCC[C@H]1C(=O)N[C@H](C(=O)C(F)(F)C(=O)NCCc1ccccc1)C(C)C` gave an inhibitory constant (Ki) at Neutrophil elastase of 0.06 nM.

`CC(C)OC(=O)N[C@H](C(=O)N1CCC[C@H]1C(=O)N[C@H](C(=O)C(F)(F)F)C(C)C)C(C)C` came in with an ED50 in the test on Cricetinae gen. sp. [2] of 3 mg/kg. Moreover, the affinity on Neutrophil elastase corresponds to a Ki of 5.8 nM. The compound also returned an inhibition in vivo at 10 mg/kg with Cricetinae gen. sp. [1] of 80%.

Take `COC(=O)c1ccc2nc(C(=O)[C@@H](NC(=O)[C@@H]3CCCN3C(=O)[C@@H](NC(=O)Oc3ccccc3)C(C)C)C(C)C)oc2c1`: the Ki on Neutrophil elastase is 0.64 nM. 10 mg/kg produced 27% inhibition in vivo with Cricetinae gen. sp. [1].

As to `CC(C)[C@H](NC(=O)OCc1ccccc1)C(=O)N1CCC[C@H]1C(=O)N[C@H](C(=O)C(F)(F)CNCc1ccccc1)C(C)C`, in the test on Cricetinae gen. sp. [1], the inhibition in vivo at 10 mg/kg turned out to be 0%.

`COc1ccc(C(=O)N[C@H](C(=O)N2CCC[C@H]2C(=O)N[C@@H](C(=O)C(F)(F)C(=O)NCc2ccccn2)C(C)C)C(C)C)cc1`: on Neutrophil elastase, the Ki worked out at 58 nM. Moreover, in the test with Cricetinae gen. sp. [1], the inhibition in vivo at 10 mg/kg was 31%.

For the compound `CC(C)[C@H](NC(=O)Oc1ccccc1)C(=O)N1CCC[C@H]1C(=O)N[C@H](C(=O)C(F)(F)F)C(C)C`, the affinity on Neutrophil elastase, expressed as Ki, was 1.5 nM. In addition, in the test with Cricetinae gen. sp. [1], testing at 10 mg/kg gave an inhibition in vivo of 93%.

With `CC(C)[C@H](NC(=O)OCc1ccccc1)C(=O)N1CCC[C@H]1C(=O)N[C@H](C(=O)C(F)(F)F)C(C)C` (Cbz-Val-Pro-Val-CF3), testing at 10 mg/kg with Cricetinae gen. sp. [1] gave an inhibition in vivo of 42%.

Compound `COC(=O)N[C@H](C(=O)N1CCC[C@H]1C(=O)NC(C(=O)C(F)(F)F)C(C)C)C(C)C` (stereo partly drawn) (Moc-Val-Pro-[ξV]-CF3) came in with an inhibition in vivo at 10 mg/kg with Cricetinae gen. sp. [1] of 92%.

In the test with Cricetinae gen. sp. [1], `COc1ccc(C(=O)N[C@H](C(=O)N2CCC[C@H]2C(=O)N[C@H](C(=O)C(F)(F)F)C(C)C)C(C)C)cc1` (stereo in doubt; 1a) had an inhibition in vivo at 10 mg/kg of 70%.
